Tests used:
[1] = Single-dose pharmacokinetic study PO/IP in wild type mice; assay type: in vivo, C57BL/6 mice; conditions: for AUC / Cmax / Tmax / half-life: C57BL/6, mouse plasma
Procedure: Plasma from the 19 hamsters dosed with ARI-001 in the above described 18-day study was analyzed for concentrations of ARI-001. Concentrations were determined for these samples, which were collected 24 hours after the final dose was administered. Briefly, plasma drug concentrations for the non-GLP pharmacokinetic experiments were determined by LC-MS using an Applied Biosystems 4000Qtrap spectrometer with electrospray ionization. Samples were prepared for analysis by precipitation of plasma proteins with cold methanol. HPLC of the samples was done with an Agilent Eclipse C18 column and a methanol/water gradient containing 0.1% formic acid and 5 mM ammonium acetate. ARI-001 was detected using multiple reaction monitoring (MRM) in the positive ion mode. For quantitation, a standard curve was measured by addition of known amounts of ARI-001 to plasma from untreated animals and preparing in a manner identical to the samples from treated animals. All plasma samples were spiked with 10 ng/mL of isotope-enriched ARI-001 which served as an internal standard for the LC-MS measurements. All compound concentrations are reported in μM. For correlation analysis, plasma concentrations of ARI-001 in a given animal were paired with that same animal's lipid parameter. […] These correlations are graphed in FIG. 6 and FIG. 7. Pearson r values were determined using all data points, as was the two-tailed P-value for the data set.
Wild type C57BL/6 mice were dosed with a single administration of ARI-001 in solution either via oral gavage (PO) or via intraperitoneal injection (IP). Blood samples were then collected at various time points over a 24-hour period; plasma was then analyzed for concentrations of ARI-001 as described earlier. ARI-001 was administered at either a dose of 2240 mg/kg as a single bolus via oral gavage, or a dose of 448 mg/kg as a single bolus via intraperitoneal injection.

rats = experiment: Clinical symptoms of flushing over 28 days; assay type: in vivo
Excerpt: (§1) Additionally, clinical symptoms of “flushing” were not observed over 28 days in rats or dogs.

dogs = experiment: Clinical symptoms of flushing over 28 days; assay type: in vivo
Excerpt: as §1

healthy adult volunteers = experiment: Human clinical trial, single escalating oral doses: flushing; assay type: in vivo; conditions: single oral doses 500 to 6000 mg; preliminary
Procedure: A randomized, double-blind, placebo-controlled study is performed with sequential escalating doses by cohort with observations for 30 hours post dosing and return visit on 8th day. Study subjects are healthy male and female adult volunteers, age 18-60 years, with LDL-C>130 mg/dL and weight <85 kg. Subjects are randomly assigned to receive study drug or placebo.
Five periods of single dose escalation, with 8 subjects per cohort (6 drug: 2 placebo) involve a total 40 subjects. Appropriately blinded matching placebos are provided. Cohort 1 receives 500 mg of ARI-001 formulated as a single oral tablet, plus eleven placebo tablets; Cohort 2, 1000 mg taken as two 500 mg tablets of ARI-001, plus ten placebo tablets; Cohort 3, 2000 mg taken as four 500 mg tablets of ARI-001, plus eight placebo tablets; Cohort 4, 4000 mg taken as eight 500 mg tablets of ARI-001, plus four placebo tablets; Corhort 5, 6000 mg taken as twelve 500 mg tablets of ARI-001. Placebo-only subjects take twelve placebo tablets. Each tablet is a compressed, film-coated tablet suitable for oral administration. […]

[2] = Single oral dose pharmacokinetic comparison niacin, ARI-001, 2230C in wild type mice; assay type: in vivo, C57BL/6 mice; conditions: single bolus oral gavage, mouse plasma
Excerpt: Compound 2230C has the structure

[3] = PO, 2240 mg/kg single bolus oral gavage

AUC ([1]; IP, 448 mg/kg single bolus): 439 µM·h | Cmax ([1]; IP, 448 mg/kg single bolus): 450 µM | Tmax ([1]; IP, 448 mg/kg single bolus): 15 min | half-life ([1]; IP, 448 mg/kg single bolus): 30 min | AUC [1, 3]: 1100 µM·h | Cmax [1, 3]: 289 µM | Tmax [1, 3]: 30 min | half-life [1, 3]: 90 min | remaining plasma concentration at the 24 hour timepoint ([1]; single dose PO 2240 mg/kg or IP 448 mg/kg): undetectable | clinical symptoms of flushing (rats): not observed | clinical symptoms of flushing (dogs): not observed | AUC ([2]; C57BL/6): 1100 µM·h | Cmax ([2]; C57BL/6): 309 µM | Tmax ([2]; C57BL/6): 22.8 min | half-life ([2]; C57BL/6, read-out: half-life (t1/2) (converted)): 85.8 min | AUC (% Niacin) [2]: 9.4 % Niacin | Cmax (% Niacin) [2]: 7.5 % Niacin | Cmax/AUC0-24 [2]: 0.28 h⁻¹
Compound: O=C(O)c1ccc(CCN2CCOCC2)nc1 [ARI-001]
signs of flushing (healthy adult volunteers): no patients exhibited any signs of flushing
